What was measured:
ZEAMX (Corn, Field) = assay: Postemergence herbicidal evaluation; type: in vivo, Zea mays, L.
How it was run: (§1)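 Visual 0–9 injury scores versus control plants, covering stand, vigour, malformation, size, chlorosis and general appearance, taken four to five weeks post-spray and averaged over replicate tests. Plants were sprayed at roughly two weeks old and held on greenhouse benches.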

GALAP (Galium aparine) [1] = assay: Preemergence herbicidal evaluation; type: in vivo; settings: rated 4-5 weeks after treatment
How it was run: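 Preemergence soil spray, aq. acetone; greenhouse; visual 0–9 score vs control at 4–5 wk.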

[2] = system: ECHORC (Echinochloa oryzoides); assay: Flooded paddy, preemergence weed control; type: in vivo, Echinochloa oryzoides (Ard.) Fritsch.; settings: rated 3-4 weeks after treatment, 0-9 rating scale
How it was run: (§2)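 Preemergence, flooded: propagules planted at 0.5 cm depth in silt loam, water level maintained at 1.5 to 3 cm over soil, containers kept on greenhouse benches. Activity scored 0-9 by eye relative to a control plant.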

ORYSAT (Rice, Tebonnet) = assay: Preemergence herbicidal evaluation; type: in vivo, Oryza sativa, (L.) Tebonnet; settings: rated 4-5 weeks after treatment
[3] = system: TRZAWR (Wheat, Winter, cv Riband); assay: Postemergence herbicidal evaluation; type: in vivo, Triticum aestivum
How it was run: as §1

SETVI (Setaria viridis) = assay: Postemergence herbicidal evaluation; type: in vivo, (L.) Beau
How it was run: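 Ratings use a 0-9 visual scale covering stand, vigor, malformation, size, chlorosis and appearance versus a control, scored 4-5 weeks post-spray. Roughly two-week-old seedlings received about 0.0040-1.000 kg/ha active, applied in 50/50 acetone/water with 0.5% TWEEN 20. Multiple tests per compound were averaged.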

[4] = system: CYPSE (Cyperus serotinus); assay: Flooded paddy, preemergence weed control; type: in vivo, Rottb.; settings: rated 3-4 weeks after treatment, 0-9 rating scale
How it was run: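 Seeds or propagules were planted 0.5 cm deep in silt loam and flooded to 1.5–3 cm. Compounds in 50/50 v/v aqueous/acetone were pipetted into the flood water at about 0.0080 to 0.1250 kg/ha. After 3–4 weeks in the greenhouse, effect was rated visually on a 0–9 scale versus untreated control.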

GALAP (Galium aparine) [5] = assay: Postemergence herbicidal evaluation; type: in vivo
How it was run: as §1

[6] = system: ECHCG (Echinochloa crus-galli); assay: Postemergence herbicidal evaluation; type: in vivo, (L.) Beau
How it was run: as §1

[7] = system: SAGPY (Sagittaria pygmaea); assay: Flooded paddy, preemergence weed control; type: in vivo, L.; settings: rated 3-4 weeks after treatment, 0-9 rating scale
How it was run: as §2

| Structure (SMILES) | Postemergence herbicidal rating, ZEAMX (ZEAMX (Corn, Field); rate 0.0320 kg/ha) | Postemergence herbicidal rating, ZEAMX (ZEAMX (Corn, Field); rate 0.0620 kg/ha) | GALAP preemergence herbicidal rating (GALAP (Galium aparine) [1]; Rate 0.0620 kg/ha) | GALAP preemergence herbicidal rating (GALAP (Galium aparine) [1]; Rate 0.1250 kg/ha) | GALAP preemergence herbicidal rating (GALAP (Galium aparine) [1]; Rate 0.2500 kg/ha) | herbicidal rating, ECHORC ([2]; rate 0.0080 kg/ha) | herbicidal rating, ECHORC ([2]; rate 0.0320 kg/ha) | herbicidal rating, ECHORC ([2]; rate 0.1250 kg/ha) | Postemergence herbicidal rating, TRZAWR ([3]; rate 0.0320 kg/ha) | Postemergence herbicidal rating, TRZAWR ([3]; rate 0.0620 kg/ha) | Postemergence herbicidal rating, SETVI (SETVI (Setaria viridis); rate 0.0320 kg/ha) | Postemergence herbicidal rating, SETVI (SETVI (Setaria viridis); rate 0.0620 kg/ha) | herbicidal rating, CYPSE ([4]; rate 0.0320 kg/ha) | herbicidal rating, CYPSE ([4]; rate 0.1250 kg/ha) | Postemergence herbicidal rating, GALAP (GALAP (Galium aparine) [5]; rate 0.0320 kg/ha) | Postemergence herbicidal rating, GALAP (GALAP (Galium aparine) [5]; rate 0.0620 kg/ha) | Postemergence herbicidal rating, ECHCG ([6]; rate 0.0320 kg/ha) | Postemergence herbicidal rating, ECHCG ([6]; rate 0.0620 kg/ha) | herbicidal rating, SAGPY ([7]; rate 0.0320 kg/ha) | herbicidal rating, SAGPY ([7]; rate 0.1250 kg/ha) | also measured |
| --- | --- | --- | --- | --- | --- | --- | --- | --- | --- | --- | --- | --- | --- | --- | --- | --- | --- | --- | --- | --- | --- |
| Cn1c(C(F)(F)F)cc(=O)n(-c2ccc3snc(C4OCCS4)c3c2)c1=O (stereo not shown) [Compound 31, 1-methyl-3-[3-(1,3-oxathiolan-2-yl)-1,2-benzisothiazol-5-yl]-6-(trifluoromethyl)uracil] | 5.5 | 5.5 | 5.0 | 9.0 | 9.0 | 3.0 | 8.0 | 9.0 | 5.0 | 5.5 | 3.0 | 7.0 | 4.0 | 5.0 | 6.0 | 9.0 | 2.0 | 2.0 | 9.0 | 9.0 | ORYSAT preemergence herbicidal rating (ORYSAT (Rice, Tebonnet); Rate 0.0620 kg/ha): 4.0; ORYSAT preemergence herbicidal rating (ORYSAT (Rice, Tebonnet); Rate 0.1250 kg/ha): 7.7; ORYSAT preemergence herbicidal rating (ORYSAT (Rice, Tebonnet); Rate 0.2500 kg/ha): 8.5; herbicidal rating, SAGPY ([7]; rate 0.0080 kg/ha): 0.0 |
| Cn1ccnc1-c1nsc2ccc(-n3c(=O)cc(C(F)(F)F)n(C)c3=O)cc12 [Compound 5, 1-methyl-3-[3-(1-methylimidazol-2-yl)-1,2-benzisothiazol-5-yl]-6-(trifluoromethyl)uracil] | 4.5 | 5.5 | 4.0 | 5.0 | 7.0 | – | 0.0 | 2.0 | 2.5 | 3.5 | 0.0 | 1.0 | 0.0 | 0.0 | 0.0 | 4.0 | 0.0 | 0.0 | 0.0 | 0.0 | ORYSAT preemergence herbicidal rating (ORYSAT (Rice, Tebonnet); Rate 0.0620 kg/ha): 3.0; ORYSAT preemergence herbicidal rating (ORYSAT (Rice, Tebonnet); Rate 0.1250 kg/ha): 5.0; ORYSAT preemergence herbicidal rating (ORYSAT (Rice, Tebonnet); Rate 0.2500 kg/ha): 7.5 |
| Cc1ccsc1-c1nsc2ccc(-n3c(=O)cc(C(F)(F)F)n(C)c3=O)cc12 [Compound 4, 1-methyl-3-[3-(3-methyl-2-thienyl)-1,2-benzisothiazol-5-yl]-6-(trifluoromethyl)uracil] | 4.4 | 4.5 | 5.0 | 8.0 | 9.0 | 4.0 | 9.0 | 9.0 | 3.7 | 4.2 | 5.0 | 6.3 | 6.5 | 9.0 | 3.3 | 6.0 | 2.0 | 2.8 | 2.0 | 5.5 | Postemergence herbicidal rating, ZEAMX (ZEAMX (Corn, Field); rate 0.1250 kg/ha): 5.0; ORYSAT preemergence herbicidal rating (ORYSAT (Rice, Tebonnet); Rate 0.0620 kg/ha): 1.4; ORYSAT preemergence herbicidal rating (ORYSAT (Rice, Tebonnet); Rate 0.1250 kg/ha): 1.9; ORYSAT preemergence herbicidal rating (ORYSAT (Rice, Tebonnet); Rate 0.2500 kg/ha): 2.8; Postemergence herbicidal rating, TRZAWR ([3]; rate 0.1250 kg/ha): 5.2; Postemergence herbicidal rating, SETVI (SETVI (Setaria viridis); rate 0.1250 kg/ha): 7.3; herbicidal rating, CYPSE ([4]; rate 0.0080 kg/ha): 0.0; Postemergence herbicidal rating, GALAP (GALAP (Galium aparine) [5]; rate 0.1250 kg/ha): 8.3; Postemergence herbicidal rating, ECHCG ([6]; rate 0.1250 kg/ha): 1.7; herbicidal rating, SAGPY ([7]; rate 0.0080 kg/ha): 0.0 |
| Cn1c(C(F)(F)F)cc(=O)n(-c2ccc3snc(C4SCCN4C(=O)c4ccccc4)c3c2)c1=O (stereo not shown) [Compound 30, 3-benzoyl-2-[5-[3,6-dihydro-3-methyl-2,6-dioxo-4-(trifluoromethyl)-1(2H)-pyrimidinyl]-1,2-benzisothiazol-3-yl]thiazolidine] | 4.5 | 6.0 | 0.0 | 7.0 | 9.0 | 3.0 | 4.0 | 9.0 | 4.5 | 4.5 | 0.0 | 4.0 | 0.0 | 3.0 | 1.0 | 3.0 | 0.0 | 2.0 | 1.0 | 6.0 | ORYSAT preemergence herbicidal rating (ORYSAT (Rice, Tebonnet); Rate 0.0620 kg/ha): 0.0; ORYSAT preemergence herbicidal rating (ORYSAT (Rice, Tebonnet); Rate 0.1250 kg/ha): 0.0; ORYSAT preemergence herbicidal rating (ORYSAT (Rice, Tebonnet); Rate 0.2500 kg/ha): 1.0; herbicidal rating, SAGPY ([7]; rate 0.0080 kg/ha): 0.0 |
| Cn1c(C(F)(F)F)cc(=O)n(-c2ccc3snc(C4OCCO4)c3c2)c1=O [Compound 45, 3-[3-(1,3-dioxolan-2-yl)-1,2-benzisothiazol-5-yl]-1-methyl-6-(trifluoromethyl)uracil] | 5.5 | 6.0 | – | – | – | 3.5 | 7.3 | 9.0 | 4.4 | 5.0 | 6.3 | 9.0 | 9.0 | 9.0 | 8.5 | 9.0 | 2.8 | 4.0 | 8.0 | 9.0 | Preemergence herbicidal rating GALAP (GALAP (Galium aparine) [1]; Rate 0.0620 kg/ha): 7.0; Preemergence herbicidal rating GALAP (GALAP (Galium aparine) [1]; Rate 0.1250 kg/ha): 9.0; Preemergence herbicidal rating GALAP (GALAP (Galium aparine) [1]; Rate 0.2500 kg/ha): 9.0; Preemergence herbicidal rating ORYSAT (ORYSAT (Rice, Tebonnet); Rate 0.0620 kg/ha): 8.7; Preemergence herbicidal rating ORYSAT (ORYSAT (Rice, Tebonnet); Rate 0.1250 kg/ha): 9.0; Preemergence herbicidal rating ORYSAT (ORYSAT (Rice, Tebonnet); Rate 0.2500 kg/ha): 9.0; herbicidal rating, CYPSE ([4]; rate 0.0080 kg/ha): 9.0; herbicidal rating, SAGPY ([7]; rate 0.0080 kg/ha): 7.0 |
| Cc1nnc(-c2nsc3ccc(-n4c(=O)cc(C(F)(F)F)n(C)c4=O)cc23)s1 [Compound 17, 1-methyl-3-[3-(5-methyl-1,3,4-thiadiazol-2-yl)-1,2-benzisothiazol-5-yl]-6-(trifluoromethyl)uracil] | 4.0 | 4.0 | 7.0 | 9.0 | 9.0 | 0.0 | 3.0 | 6.0 | 3.0 | 3.0 | 0.0 | 0.0 | 3.0 | 4.5 | 1.0 | 1.0 | 0.0 | 0.0 | 2.5 | 5.5 | Postemergence herbicidal rating, ZEAMX (ZEAMX (Corn, Field); rate 0.1250 kg/ha): 4.0; Postemergence herbicidal rating, ZEAMX (ZEAMX (Corn, Field); rate 0.2500 kg/ha): 5.0; ORYSAT preemergence herbicidal rating (ORYSAT (Rice, Tebonnet); Rate 0.0620 kg/ha): 0.0; ORYSAT preemergence herbicidal rating (ORYSAT (Rice, Tebonnet); Rate 0.1250 kg/ha): 0.0; ORYSAT preemergence herbicidal rating (ORYSAT (Rice, Tebonnet); Rate 0.2500 kg/ha): 1.0; Postemergence herbicidal rating, TRZAWR ([3]; rate 0.1250 kg/ha): 3.0; Postemergence herbicidal rating, TRZAWR ([3]; rate 0.2500 kg/ha): 3.5; Postemergence herbicidal rating, SETVI (SETVI (Setaria viridis); rate 0.1250 kg/ha): 3.0; Postemergence herbicidal rating, SETVI (SETVI (Setaria viridis); rate 0.2500 kg/ha): 7.0; herbicidal rating, CYPSE ([4]; rate 0.0080 kg/ha): 0.0; Postemergence herbicidal rating, GALAP (GALAP (Galium aparine) [5]; rate 0.1250 kg/ha): 6.0; Postemergence herbicidal rating, GALAP (GALAP (Galium aparine) [5]; rate 0.2500 kg/ha): 6.0; Postemergence herbicidal rating, ECHCG ([6]; rate 0.1250 kg/ha): 0.0; Postemergence herbicidal rating, ECHCG ([6]; rate 0.2500 kg/ha): 0.0; herbicidal rating, SAGPY ([7]; rate 0.0080 kg/ha): 0.0 |

Source: patent publication US6706663B2, “Herbicidal 3-heterocyclic substituted benzisothiazole and benzisoxazole compounds” (Wyeth, priority 2000, dated 2004)
